Measured values from ChEMBL document CHEMBL3988442, “University of Dundee, Small-Polar-MMV Screening Library” (2021).
pIC50: −log10 of the molar value. “And” between values parts separate entries of the source, which are not always exact repeats. Equal values may be shown once.

Experiments:
[1] = target: Chromo domain-containing protein 1 (Saccharomyces cerevisiae (strain ATCC 204508 / S288c) (Baker's yeast), UniProt P32657); assay: ScCHD-1 Enzyme Inhibition Assay; format: functional
[2] = system: Mycobacterium tuberculosis; assay: Cornell M. t heat shock assay; format: functional, organism-based; details: Mycobacterium tuberculosis
[3] = target: T1, Ubiquitin-activating enzyme e1, putative (Leishmania donovani (strain BPK282A1), UniProt E9BSI1); assay: Leishmania donovani Ubiquitin Activating Enzyme (LdE1); format: functional
T1 sequence (E9BSI1 whole entry): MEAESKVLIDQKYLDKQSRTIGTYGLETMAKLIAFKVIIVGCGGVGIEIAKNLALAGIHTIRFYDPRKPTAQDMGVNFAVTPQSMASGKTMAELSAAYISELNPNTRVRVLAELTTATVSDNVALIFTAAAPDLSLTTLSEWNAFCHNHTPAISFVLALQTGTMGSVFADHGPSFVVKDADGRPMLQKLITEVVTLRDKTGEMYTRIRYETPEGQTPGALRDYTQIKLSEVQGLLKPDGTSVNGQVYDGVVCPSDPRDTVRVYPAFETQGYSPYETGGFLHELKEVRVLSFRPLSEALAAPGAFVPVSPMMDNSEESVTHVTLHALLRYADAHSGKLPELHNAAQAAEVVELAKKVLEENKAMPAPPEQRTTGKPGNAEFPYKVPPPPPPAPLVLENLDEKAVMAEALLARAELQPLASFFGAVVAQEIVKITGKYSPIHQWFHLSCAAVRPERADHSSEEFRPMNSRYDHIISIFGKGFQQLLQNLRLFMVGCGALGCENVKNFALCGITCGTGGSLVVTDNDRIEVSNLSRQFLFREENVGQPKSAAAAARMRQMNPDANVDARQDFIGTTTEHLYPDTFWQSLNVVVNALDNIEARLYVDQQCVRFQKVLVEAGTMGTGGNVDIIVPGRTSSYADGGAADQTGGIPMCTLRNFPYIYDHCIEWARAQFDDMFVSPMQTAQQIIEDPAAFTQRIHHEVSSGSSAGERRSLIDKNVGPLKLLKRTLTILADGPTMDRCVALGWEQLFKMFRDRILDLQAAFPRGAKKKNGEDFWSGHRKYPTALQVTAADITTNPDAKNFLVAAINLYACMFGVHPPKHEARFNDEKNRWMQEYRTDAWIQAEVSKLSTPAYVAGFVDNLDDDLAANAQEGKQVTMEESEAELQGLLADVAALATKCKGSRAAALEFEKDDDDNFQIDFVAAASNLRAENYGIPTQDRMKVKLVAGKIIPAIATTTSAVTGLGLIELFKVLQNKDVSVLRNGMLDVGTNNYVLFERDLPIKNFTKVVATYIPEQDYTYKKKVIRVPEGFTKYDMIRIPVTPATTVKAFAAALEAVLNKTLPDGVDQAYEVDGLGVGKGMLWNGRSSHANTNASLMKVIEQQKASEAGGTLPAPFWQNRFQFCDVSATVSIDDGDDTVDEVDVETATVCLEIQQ

[4] = target: Polyketide synthase Pks13 (Mycobacterium tuberculosis (strain ATCC 25618 / H37Rv), UniProt I6X8D2); assay: Mycobacterium tuberculosis Polyketide synthase 13 Thioesterase (PKS13); format: functional
Histidine--tRNA ligase = target: T2, Histidine--tRNA ligase (Leishmania infantum, UniProt A4I591); assay: Leishmania infantum Histidine tRNA synthetase (LdHisRS); format: functional
T2 sequence (A4I591 whole entry): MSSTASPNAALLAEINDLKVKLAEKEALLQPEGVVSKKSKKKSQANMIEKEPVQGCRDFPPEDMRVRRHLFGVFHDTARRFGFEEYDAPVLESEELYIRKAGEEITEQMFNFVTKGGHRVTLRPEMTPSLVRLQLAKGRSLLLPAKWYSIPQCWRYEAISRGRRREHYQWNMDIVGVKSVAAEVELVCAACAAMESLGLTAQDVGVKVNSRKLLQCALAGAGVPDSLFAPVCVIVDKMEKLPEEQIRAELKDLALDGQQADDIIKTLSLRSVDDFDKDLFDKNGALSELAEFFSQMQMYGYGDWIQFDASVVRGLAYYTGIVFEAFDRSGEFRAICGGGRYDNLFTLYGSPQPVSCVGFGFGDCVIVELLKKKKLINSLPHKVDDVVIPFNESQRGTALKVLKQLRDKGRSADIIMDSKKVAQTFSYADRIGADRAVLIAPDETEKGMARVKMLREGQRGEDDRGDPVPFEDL

Lysine--tRNA ligase = Lysine--tRNA ligase (Plasmodium falciparum (isolate 3D7), UniProt Q8IDJ8); assay: Pf-KRS-1 (Lysyl-RNA Synthetase-1, KRS-1, cytosolic KRS) from Plasmodium falciparum. Inhibitor assay, 384 well plate, luminescence read.; format: functional
Plasmodium falciparum = assay: Plasmodium falciparum sporozoite viability assay; format: functional, organism-based; details: Plasmodium falciparum

Chain of Chromo domain-containing protein 1 (P32657 whole entry, the tested form may be a part): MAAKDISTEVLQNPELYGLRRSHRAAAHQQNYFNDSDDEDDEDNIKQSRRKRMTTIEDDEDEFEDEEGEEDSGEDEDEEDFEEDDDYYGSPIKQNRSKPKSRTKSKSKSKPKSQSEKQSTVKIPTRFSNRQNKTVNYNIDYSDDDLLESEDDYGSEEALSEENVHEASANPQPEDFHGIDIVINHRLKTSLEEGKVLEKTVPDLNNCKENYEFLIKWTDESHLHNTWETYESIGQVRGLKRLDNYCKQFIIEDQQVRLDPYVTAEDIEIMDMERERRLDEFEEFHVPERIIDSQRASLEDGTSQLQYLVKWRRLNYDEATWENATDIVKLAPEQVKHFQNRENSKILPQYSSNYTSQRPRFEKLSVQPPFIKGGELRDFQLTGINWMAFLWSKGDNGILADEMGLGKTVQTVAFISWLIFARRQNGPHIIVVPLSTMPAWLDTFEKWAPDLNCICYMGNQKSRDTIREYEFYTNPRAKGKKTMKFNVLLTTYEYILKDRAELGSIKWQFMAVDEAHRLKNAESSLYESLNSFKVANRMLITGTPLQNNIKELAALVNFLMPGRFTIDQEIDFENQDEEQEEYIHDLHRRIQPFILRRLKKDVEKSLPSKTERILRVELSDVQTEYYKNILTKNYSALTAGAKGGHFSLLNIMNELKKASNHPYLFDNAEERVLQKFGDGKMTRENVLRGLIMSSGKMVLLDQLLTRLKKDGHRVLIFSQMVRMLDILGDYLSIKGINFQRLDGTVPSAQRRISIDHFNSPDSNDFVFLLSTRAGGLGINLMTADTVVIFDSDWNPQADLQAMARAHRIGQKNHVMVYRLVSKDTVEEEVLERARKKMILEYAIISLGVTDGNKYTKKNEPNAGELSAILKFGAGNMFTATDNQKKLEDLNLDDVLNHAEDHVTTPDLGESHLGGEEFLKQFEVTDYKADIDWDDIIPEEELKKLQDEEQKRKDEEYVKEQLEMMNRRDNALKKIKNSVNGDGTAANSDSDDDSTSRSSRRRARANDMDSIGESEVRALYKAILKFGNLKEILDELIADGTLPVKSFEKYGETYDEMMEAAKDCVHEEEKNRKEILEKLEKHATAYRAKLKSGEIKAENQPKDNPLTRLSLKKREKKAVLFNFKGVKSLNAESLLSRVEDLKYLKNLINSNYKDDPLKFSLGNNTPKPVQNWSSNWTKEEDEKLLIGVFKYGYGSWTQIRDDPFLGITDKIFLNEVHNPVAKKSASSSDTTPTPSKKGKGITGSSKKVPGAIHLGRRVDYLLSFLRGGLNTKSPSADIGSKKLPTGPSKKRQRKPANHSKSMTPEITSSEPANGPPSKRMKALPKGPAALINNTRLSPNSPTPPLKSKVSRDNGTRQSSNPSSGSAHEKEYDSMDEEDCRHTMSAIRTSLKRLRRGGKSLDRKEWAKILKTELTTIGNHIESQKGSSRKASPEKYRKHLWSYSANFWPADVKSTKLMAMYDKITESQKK
Chain of Lysine--tRNA ligase (Q8IDJ8 whole entry): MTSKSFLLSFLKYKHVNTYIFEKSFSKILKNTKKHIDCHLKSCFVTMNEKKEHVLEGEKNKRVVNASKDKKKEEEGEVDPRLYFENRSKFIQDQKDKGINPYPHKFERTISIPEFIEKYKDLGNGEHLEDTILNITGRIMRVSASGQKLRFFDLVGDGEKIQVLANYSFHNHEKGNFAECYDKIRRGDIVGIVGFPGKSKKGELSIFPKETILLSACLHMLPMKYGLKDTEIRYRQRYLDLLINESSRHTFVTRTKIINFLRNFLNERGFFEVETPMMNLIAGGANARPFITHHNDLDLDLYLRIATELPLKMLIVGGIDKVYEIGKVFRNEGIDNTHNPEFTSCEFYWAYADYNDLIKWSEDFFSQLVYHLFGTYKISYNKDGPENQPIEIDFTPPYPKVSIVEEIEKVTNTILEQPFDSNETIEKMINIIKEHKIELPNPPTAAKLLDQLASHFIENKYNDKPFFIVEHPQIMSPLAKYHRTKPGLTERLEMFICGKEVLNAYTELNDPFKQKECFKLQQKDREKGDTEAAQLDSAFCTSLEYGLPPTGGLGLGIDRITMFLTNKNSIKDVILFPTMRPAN
Chain of Polyketide synthase Pks13 (I6X8D2 whole entry): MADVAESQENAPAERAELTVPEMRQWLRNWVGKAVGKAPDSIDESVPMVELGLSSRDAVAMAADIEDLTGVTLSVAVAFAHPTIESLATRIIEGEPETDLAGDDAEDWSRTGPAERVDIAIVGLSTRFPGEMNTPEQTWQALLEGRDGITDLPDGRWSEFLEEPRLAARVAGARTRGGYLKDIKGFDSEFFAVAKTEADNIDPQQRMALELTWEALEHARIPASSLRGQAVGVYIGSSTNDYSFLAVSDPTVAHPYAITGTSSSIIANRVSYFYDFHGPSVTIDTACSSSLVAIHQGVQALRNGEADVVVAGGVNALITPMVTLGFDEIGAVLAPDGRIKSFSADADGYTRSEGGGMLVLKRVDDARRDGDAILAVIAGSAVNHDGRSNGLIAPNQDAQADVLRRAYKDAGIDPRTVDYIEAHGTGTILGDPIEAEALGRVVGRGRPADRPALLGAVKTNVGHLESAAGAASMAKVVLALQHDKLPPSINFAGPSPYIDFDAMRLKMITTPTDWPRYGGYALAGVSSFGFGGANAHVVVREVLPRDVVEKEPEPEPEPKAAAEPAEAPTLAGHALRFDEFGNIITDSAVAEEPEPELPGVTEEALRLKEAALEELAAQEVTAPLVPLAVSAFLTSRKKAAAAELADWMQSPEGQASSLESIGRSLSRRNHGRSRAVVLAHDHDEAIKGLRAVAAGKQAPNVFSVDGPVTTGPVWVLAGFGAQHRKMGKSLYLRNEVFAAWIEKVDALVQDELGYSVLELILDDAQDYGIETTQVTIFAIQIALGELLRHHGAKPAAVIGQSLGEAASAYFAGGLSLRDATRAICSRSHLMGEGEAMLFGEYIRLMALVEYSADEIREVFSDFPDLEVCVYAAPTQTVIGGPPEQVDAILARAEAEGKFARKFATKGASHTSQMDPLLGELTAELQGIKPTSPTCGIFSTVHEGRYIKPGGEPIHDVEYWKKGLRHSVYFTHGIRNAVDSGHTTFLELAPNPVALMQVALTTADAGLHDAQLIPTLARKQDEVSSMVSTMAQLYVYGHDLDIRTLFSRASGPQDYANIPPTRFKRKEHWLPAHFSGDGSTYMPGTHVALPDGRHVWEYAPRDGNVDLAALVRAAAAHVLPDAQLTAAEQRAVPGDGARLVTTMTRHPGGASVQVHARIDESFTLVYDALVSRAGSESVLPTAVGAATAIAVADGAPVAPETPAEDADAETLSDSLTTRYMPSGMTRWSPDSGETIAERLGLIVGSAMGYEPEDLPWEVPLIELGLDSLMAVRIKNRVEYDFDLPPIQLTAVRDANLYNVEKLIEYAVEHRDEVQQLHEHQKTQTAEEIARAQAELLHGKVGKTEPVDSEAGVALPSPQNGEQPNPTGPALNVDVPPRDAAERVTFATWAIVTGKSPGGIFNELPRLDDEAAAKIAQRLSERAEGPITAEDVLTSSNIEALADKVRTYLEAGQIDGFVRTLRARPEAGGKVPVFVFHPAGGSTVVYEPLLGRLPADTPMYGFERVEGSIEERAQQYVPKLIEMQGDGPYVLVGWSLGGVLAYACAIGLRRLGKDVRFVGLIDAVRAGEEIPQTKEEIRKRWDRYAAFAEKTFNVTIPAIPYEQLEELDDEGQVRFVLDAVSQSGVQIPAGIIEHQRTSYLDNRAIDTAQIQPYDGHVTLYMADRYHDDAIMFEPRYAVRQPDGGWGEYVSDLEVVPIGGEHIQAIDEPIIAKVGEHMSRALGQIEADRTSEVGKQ

| Structure (SMILES) | pIC50 [1] | other results |
| --- | --- | --- |
| CCn1nccc1CNC(=O)C1CC1 | < 4.53 |  |
| COc1ccc(C2=C(C)C(N3CCc4ccccc4C3)=NS2(=O)=O)cc1 | 4.57 and 4.62 |  |
| CCCN1CCCn2nc(CNS(=O)(=O)c3cccc(C#N)c3)cc2C1 | < 4.53 |  |
| CCOCCN1CCN(Cc2cccc(C(=O)N(C)C)c2)CC1 | < 4.53 |  |
| Cc1cccc(CN2C[C@@H]3COC[C@]3(CNC(=O)c3ccsc3)C2)n1 | < 4.53 |  |
| CN(Cc1cccc(F)c1)C(=O)CN1CCCC1CCc1ccccc1 (stereo not given) | < 4.53 |  |
| Cc1cccc(CN2CCC3(CCCN(C(=O)c4ccsc4)C3)C2=O)n1 (stereo not given) | < 4.53 |  |
| CCc1nnc(CNC2CCc3nc(C(C)C)nn3C2)o1 (stereo not given) |  | pIC50 [2]: < 4.00; pIC50 [3]: < 4.00 |
| COCCN1CCN(CCCS(C)(=O)=O)CC1C (stereo not given) | < 4.53 |  |
| Cc1nc(N)sc1C(=O)N1CCCC(c2nccn2CCCN(C)C)C1 (stereo not given) | < 4.53 |  |
| CCS(=O)(=O)Nc1ccn(Cc2cccc(Cl)c2)n1 | < 4.53 |  |
| CNS(=O)(=O)c1cccc(CNC(=O)c2c(C)oc(C)c2C)c1 | < 4.53 |  |
| COC[C@@]12CC[C@@H](N3CCOCC3)C[C@H]1CCN(c1ncccn1)C2 | < 4.53 |  |
| CN(C)c1ccc(C(=O)N2CCN(C(=O)N3CCCCC3)CC2)nn1 |  | pIC50 [4]: < 4.00; pIC50 [3]: < 4.00 |
| Cc1cccc(CN2CC[C@@H]3[C@@H]2CCN3C(=O)c2ccno2)n1 | < 4.53 |  |
| CN1CCN(c2ncc3c(=O)n(-c4cccc(F)c4)c(=O)[nH]c3n2)CC1 | < 4.53 |  |
| COc1cccc2c1OCC(C(=O)NC1CCN(S(C)(=O)=O)CC1)C2 (stereo not given) | < 4.53 |  |
| FC(F)(F)COCCN1CCCC(c2noc(C3CC3)n2)C1 (stereo not given) | < 4.53 |  |
| Cc1cnn(CC2CCCN2CC(=O)N(C)CCC#N)c1 (stereo not given) | < 4.53 |  |
| O=C(CCc1c[nH]cn1)N1CC[C@@H](c2ccc3ccccc3c2)[C@H](O)C1 | < 4.53 |  |
| Cn1ccnc1CN1CCC2(CC1)CN(CC1CC1)C(=O)CO2 | < 4.53 |  |
| Cc1cccc(C(=O)N2C[C@@H](OCc3cccnc3)[C@H]3OCCC[C@@H]32)n1 | < 4.53 |  |
| Cc1ccc(C(=O)N2CCn3cc(CN(C)Cc4ccco4)nc3C2)o1 | < 4.53 |  |

| Structure (SMILES) | pIC50 [1] | other results |
| --- | --- | --- |
| O=C(c1ccnnc1)N1C[C@@H](OCC2CCOCC2)[C@H]2OCCC[C@H]21 | < 4.53 |  |
| O=C(COCc1nc(-c2ccncc2)no1)N1CCCCCC1 | < 4.53 |  |
| Cc1ccccc1C1CCCN1C(=O)CN1CC2(CCNCC2)OC1=O (stereo not given) | < 4.53 |  |
| Cn1ccc(NC(=O)Cc2cccc(F)c2)n1 | < 4.53 |  |
| O=C(COc1coc(CN2CCCCCC2)cc1=O)c1ccccc1 | < 4.53 |  |
| CN(C)c1ccc(CNc2cncc(-n3cccn3)n2)cc1 | < 4.53 |  |
| CC(CNC(=O)c1ccc(Cl)cc1I)N1CCCC1 (stereo not given) | < 4.53 |  |
| COCCC(=O)N1CCc2cc(Cl)cc(Cl)c2C1 | < 4.53 |  |
| Cc1cc(NC(=O)Cn2cc(C#N)c(=O)c3cc(Br)ccc32)no1 | < 4.53 and 4.59 |  |
| CC(NC(=O)c1cc(Br)c2c(c1)OCCO2)C(N)=O (stereo not given) | < 4.53 |  |
| Cc1ccc(S(=O)(=O)NCCNC(=O)c2ccoc2)cc1F | < 4.53 |  |
| CCc1ccc(NC(=O)N2C[C@H]3C[C@H](C(=O)NC)[C@@H](C2)O3)cc1 | < 4.53 |  |
| COC(=O)N1CCc2ccc(NC(=O)c3cn(C)nn3)cc2C1 | < 4.53 |  |
| Cc1ccc(=O)n(CC2(O)CCN(Cc3cc(C)c(O)c(C)c3)CC2)n1 | < 4.53 |  |
| CCn1ncnc1C1CC(=O)NCc2nc3ccccn3c21 (stereo not given) | < 4.53 |  |
| CN(C)CC1(O)CCN(S(=O)(=O)c2ccc(F)cc2)C1 (stereo not given) | < 4.53 |  |
| CCC(NC(=O)C1CCN(S(C)(=O)=O)CC1)c1ccc(OC)c(C)c1 (stereo not given) | < 4.53 |  |
| CCCN(C(=O)c1cnc(C)cn1)c1nc2c(s1)CCc1c-2cnn1C |  | pIC50 (Histidine--tRNA ligase): 4.36 and 4.47; pIC50 [3]: < 4.00; pIC50 (Lysine--tRNA ligase): < 4.30 |
| CC(=O)c1cccc(NC(=O)Cn2cc(I)cn2)c1 | < 4.53 |  |
| Cc1ccc(CNC(=O)CN2CCN(CC(O)C3CC3)CC2)cc1 (stereo not given) | < 4.53 |  |
| Cc1cc(C)n(CC2CN(Cc3cccc(C(N)=O)c3)CCO2)n1 (stereo not given) | < 4.53 |  |
| CNC(=O)C1CCC(NC(=O)N(C)Cc2c(C)noc2C)CC1 (stereo not given) | < 4.53 |  |
| CCc1nc(C2CCCN(C(=O)c3cn(C)nc3C)C2)no1 (stereo not given) | < 4.53 |  |

| Structure (SMILES) | pIC50 [1] | other results |
| --- | --- | --- |
| CCNC(=O)[C@@H]1C[C@H](NC(=O)Cc2ccsc2)CN1Cc1ccc(C)o1 | < 4.53 |  |
| Cc1ccc(-c2nc(CNC3CCc4ncnn4C3)co2)c(C)c1 (stereo not given) | < 4.53 |  |
| CC(=O)N(Cc1noc(C)n1)C1CCN(Cc2ccon2)C1 (stereo not given) | < 4.53 |  |
| CCc1ccc(-n2c(=O)[nH]c3nc(N4CCSCC4)ncc3c2=O)cc1 | < 4.53 |  |
| Cc1cc(C(=O)N2CCCCC2c2nc(C)cs2)[nH]n1 (stereo not given) | < 4.53 |  |
| CC(C)(C)n1ncc2c1NC(=O)CC2c1ccccc1 (stereo not given) | < 4.53 |  |
| CC(C)c1nc(C2CCCN2Cc2ccccc2C#N)no1 (stereo not given) | < 4.53 |  |
| NCC1(c2cccc(C(F)(F)F)c2)CCOCC1 | < 4.53 |  |
| CN(C)Cc1nnc(C2CCN(C(=O)CCc3cccs3)CC2)n1C | < 4.53 |  |
| CNc1cc(N2CCCC2CNCc2ccc(Cl)o2)ncn1 (stereo not given) | < 4.53 |  |
| N#Cc1cn(CC(=O)NC2CC2)c2ccc(Br)cc2c1=O | < 4.53 |  |
| CC(C)c1noc(CCC(=O)NC(C)c2nnc3n2CCCCC3)n1 (stereo not given) | < 4.53 |  |
| CS(=O)(=O)NCc1cc2n(n1)CCCN(Cc1cccc(C#N)c1)C2 | < 4.53 |  |
| CCNC(=O)N(C)Cc1ccc(SC)c(OC)c1 | < 4.53 |  |
| CNC(=O)COc1ccccc1CNC1CCc2ncnn2C1 (stereo not given) | < 4.53 |  |
| CC(=O)NCCC(=O)NCc1cccnc1-n1cnc2ccccc21 | < 4.53 |  |
| CCCN(C(=O)c1ccncc1)c1nc2c(s1)CCc1c-2cnn1C |  | pIC50 (Histidine--tRNA ligase): 4.69 and 4.77; pIC50 [3]: < 4.00; pIC50 (Lysine--tRNA ligase): < 4.30 |
| COCCN(C(=O)c1ccccn1)c1nc2c(s1)CCc1c-2cnn1C |  | pIC50 (Histidine--tRNA ligase): 5.04 and 4.96; pIC50 [3]: < 4.00; pIC50 (Plasmodium falciparum): 6.24; pIC50 (Lysine--tRNA ligase): < 4.30 |
| COCc1nc2cc(NCc3ccc(C)o3)ccc2o1 |  | pIC50 (Histidine--tRNA ligase): 4.17 and 4.26; pIC50 [3]: < 4.00; pIC50 (Lysine--tRNA ligase): < 4.30 |
| COCc1nc2cc(NCc3sc(C)nc3C)ccc2o1 |  | pIC50 (Histidine--tRNA ligase): 4.82 and 4.72; pIC50 [3]: < 4.00; pIC50 (Lysine--tRNA ligase): < 4.30 |
| COCc1nc2cc(NCc3nc(C)cs3)ccc2o1 |  | pIC50 (Histidine--tRNA ligase): 4.62 and 4.48; pIC50 [3]: < 4.00; pIC50 (Lysine--tRNA ligase): < 4.30 |
| CCCN(C(=O)COC)c1nc2c(s1)CCc1c-2cnn1C |  | pIC50 (Histidine--tRNA ligase): 5.15 and 5.06; pIC50 [3]: < 4.00; pIC50 (Lysine--tRNA ligase): < 4.30 |
